Reference: article PMC8557901 (Microbiology Spectrum, 2021)
Where a name gives a salt, the structure may show the parent alone.

Legend:
[1] = system: P. falciparum strain K1 in RBC; test: In vitro chemosensitivity assay, blood stage P. falciparum K1 (SYBR green I); assay type: cell-based; settings: Plasmodium falciparum, K1; erythrocytic stage, 72 h; read-out: EC50 (μM) for P. falciparum strain K1 in RBC
Protocol: Maintenance in continuous culture was done as described previously by Trager and Jensen ([46]). Cultures were maintained in fresh A+ human erythrocytes (EFS [French Blood Bank]) at 2.5% hematocrit in complete medium (RPMI 1640 with 25 mM HEPES, 25 mM NaHCO3, 10% A+ human serum) at 37°C under a reduced-O2 atmosphere (gas mixture of 10% O2, 5% CO2, and 85% N2). Parasitemia was maintained daily between 1% and 3%. The P. falciparum drug susceptibility test was carried out by comparing quantities of DNA in treated and control cultures of parasites in human erythrocytes according to a SYBR green I fluorescence-based method ([50]) using a 96-well fluorescence plate reader. Compounds, previously dissolved in DMSO (final concentration, less than 0.5% vol/vol), were incubated in a total assay volume of 200 μl of synchronized culture suspension (2% hematocrit and 0.4% parasitemia) for 72 h in a humidified atmosphere (85% N2, 10% O2, and 5% CO2) at 37°C in 96-well flat-bottom plates. Duplicate assays were performed for each sample. After incubation, plates were frozen at −20°C for 24 h. Then, the frozen plates were thawed for 1 h at 37°C. Fifteen microliters of each sample was transferred to 96-well flat-bottom black plates (Greiner Bio-one) already containing 15 μl of the SYBR green I lysis buffer (2× SYBR green I, 20 mM Tris base, pH 7.5, 20 mM EDTA, 0.008% [wt/vol] saponin, 0.08% [wt/vol] Triton X-100). […] Plates were incubated for 15 min at 37°C and then read on a Tecan Infinite F-200 spectrophotometer with excitation and emission wavelengths at 485 and 535 nm, respectively. […] EC50K1 values represent the mean values calculated from three independent experiments.

[2] = Cytotoxicity on HepG2 cell line (MTT); assay type: cell-based; settings: human, HepG2 cells
Protocol: The evaluation of the cytotoxicity of the tested molecules on the HepG2 cell line was performed according to the method of Mosman ([42]) with slight modifications. […] Triplicate assays were performed for each sample. Each well was then examined under a microscope to detect possible precipitate formation before the medium was aspirated from the wells. An amount of 100 μl of MTT solution (0.5 mg/ml in medium without FBS) was then added to each well. […] After this time, the MTT solution was removed and DMSO (100 μl) was added to dissolve the resulting blue formazan crystals. Plates were shaken vigorously (700 rpm) for 10 min. The absorbance was measured at 570 nm with 630 nm as the reference wavelength using a Tecan Infinite F-200 microplate reader. DMSO was used as a blank and doxorubicin as a positive control. Cell viability was calculated as the percentage compared to the control (cells incubated without compound). […] CC50 values represent the mean values calculated from three independent experiments.

[3] = system: P. yoelii in HepG2-CD81 cells; test: Hepatic stage of P. yoelii in HepG2-CD81 cells; assay type: cell-based; settings: Plasmodium yoelii; hepatic schizonts
Protocol: Hepatocytes were seeded into collagen-coated black 96-well plates and maintained at 37°C in 5% CO2 in complete medium. […] The infected culture plates were centrifuged for 10 min at 900 × g, allowing fast parasite sedimentation, and further incubated with serial dilutions of M1. […] DMSO was used as a negative control. The number, size, and shape of the parasites were determined using a CellInsight high-content screening platform equipped with Studio HCS software (ThermoFisher Scientific). The parasite immunostaining was done using an […]70 antibody raised in mice and a secondary anti-mouse antibody coupled to Alexa Fluor 488 ([43]). […] Thirty-seven images, representing more than 95% of the total bottom surface area of a culture well in 96-well plates, were captured for analysis. The custom script used for counting and measuring parasites first required identification of the objects based on a fluorescence intensity threshold. The object identity was then further validated based on size and morphological (shape) criteria. The presence of DAPI-associated fluorescence in the selected objects allowed their final selection and the rejection of false positives. […] The parasitic size reduction was calculated on the average object area using the total surface area of each selected object (μm^2).

[4] = system: P. yoelii liver-stage parasites in murine primary hepatocytes; test: In vitro liver-stage development, P. yoelii in murine primary hepatocytes; assay type: cell-based, Plasmodium yoelii
From the text: P. yoelii 230-GFP-Luc sporozoites are mutant parasites expressing a green fluorescent protein (GFP)-luciferase cassette generated by the gene out marker out (GOMO) strategy ([39]).
(§1) Primary human hepatocytes were isolated from liver segments obtained from adult patients undergoing partial hepatectomy (Service de Chirurgie Digestive, Hépato-Bilio Pancréatique, Hôpital Pitié Salpêtrière, Paris, France). Primary simian hepatocytes were isolated from liver segments collected from healthy Macaca fascicularis monkeys from CEA, Fontenay aux Roses, France. All hepatocytes were obtained using collagenase perfusion as previously described ([40]). […] Primary murine hepatocytes were isolated from liver segments collected from BALB/c mice. Human and murine hepatocytes were used directly after their isolation. Cells were seeded in 96-well plates (Falcon; Becton Dickinson Labware Europe, France) coated with collagen I (BD Bioscience, USA) at a density of 80,000 cells per well. […] For human hepatocytes, the complete medium was supplemented with 2% dimethyl sulfoxide (DMSO; Sigma-Aldrich, USA) before infection to preserve their differentiation.
(§2) On the day of infection, 3 · 10^4 sporozoites of P. falciparum, P. yoelii, and P. cynomolgi were added to their respective host cell cultures (human, murine, and simian). The infected culture plates were centrifuged for 10 min at 900 × g, allowing fast parasite sedimentation, and further incubated with serial dilutions of M1. Culture medium containing the appropriate drug concentration was refreshed daily, and cells were fixed at 48 h postinfection (p.i.) for infections with P. yoelii, 6 days p.i. for P. falciparum, or 8 days p.i. for P. cynomolgi. For the in vitro sporozoite invasion experiments, P. falciparum sporozoites were preincubated with 1, 10, and 100 μM M1 for 1 h at room temperature before hepatocyte infections. Three hours later, after sporozoite penetration into hepatocytes, cultures were washed and then further incubated with or without the presence of the drug during 6 days. DMSO was used as a negative control.
(§3) The number, size, and shape of the parasites were determined using a CellInsight high-content screening platform equipped with Studio HCS software (ThermoFisher Scientific). […] Host cell and parasite nuclei were labeled with DAPI (4′,6-diamidino-2-phenylindole). […] The custom script used for counting and measuring parasites first required identification of the objects based on a fluorescence intensity threshold. The object identity was then further validated based on size and morphological (shape) criteria. The presence of DAPI-associated fluorescence in the selected objects allowed their final selection and the rejection of false positives. […] The parasitic size reduction was calculated on the average object area using the total surface area of each selected object (μm^2).

[5] = system: P. falciparum liver-stage parasites in human primary hepatocytes; test: In vitro liver-stage development, P. falciparum in human primary hepatocytes; assay type: cell-based, Plasmodium falciparum
From the text: as §1, §2, §3

[6] = system: P. cynomolgi liver-stage parasites in simian primary hepatocytes; test: In vitro liver-stage development, P. cynomolgi in simian primary hepatocytes; assay type: cell-based, Plasmodium cynomolgi
From the text: as §1, §2, §3

[7] = system: P. falciparum sporozoites invading primary human hepatocytes; test: Hepatocyte invasion by preincubated P. falciparum sporozoites; settings: reference compound; all concentrations tested
Protocol: as §2, §3

[8] = system: P. yoelii (GFP-luc strain); test: In vivo liver-stage assay in mice infected with P. yoelii sporozoites; set-up: species or system BALB/c mice; settings: 50 mg/kg; blood smears days 3 and 6
Protocol: Five mice per treatment group were used. Experimental groups were treated with 50 and 100 mg/kg of M1 intraperitoneally (i.p.). Untreated infected mice and noninfected mice (infection controls), as well as primaquine-treated (50 mg/kg) mice (control drug), were also included. The drugs were administered on days −1, 0, and +1, and mice were challenged on day zero by retroorbital injection of P. yoelii (GFP-luc strain) sporozoites (10,000 per mouse). In vivo bioluminescence imaging was performed 44 h postinfection on day 2, to assess liver-stage development. When parasites were detected in the liver, treatment was continued until day 5 and in vivo imaging was performed on days 3 and 6, to evaluate a prepatent period for the blood-stage parasites in mice after the sporozoite inoculation. In vivo imaging and blood smears were performed to monitor blood-stage development using methods described previously ([45]). This experiment was performed twice.
IVIS Spectrum (Caliper Life Science, Hanover, MD) was used to capture bioluminescence signals. Prior to analysis, the mice were injected i.p. with D-luciferin (100 mg/kg), anesthetized with isoflurane, and imaged 10 min postinjection. Images were analyzed using the Living Image 3.0 software (Caliper Life Sciences, Hanover, MD).
In order to study the in vivo efficacy of M1 without any hepatic CYP metabolism, we conducted an experiment using 1-aminobenzotriazole (ABT), a nonselective inhibitor of cytochrome P450 enzymes ([34], [35]). ABT was administered to mice i.p. 1 h before each treatment with 50 mg/kg gamhepathiopine for 3 days starting from the day before sporozoite inoculation.

EC50 [1] [µM]	melting point [°C]	EC50 [3] [µM]	SMILES	CC50 at 72 h [2] [µM]	further results
3.1	296		CC(C)(C)Nc1nc2cc(-c3ccc(C=O)cc3)sc2c(=O)[nH]1 [Metabolite 8, 4-(2-(tert-Butylamino)-4-oxo-3,4-dihydrothieno[3,2-d]pyrimidin-6-yl)benzaldehyde]	25.3	
> 10		> 10	CC(C)(C)Nc1nc2cc(-c3ccc(C(=O)O)cc3)sc2c(=O)[nH]1 [Metabolite 10, 4-(2-(tert-Butylamino)-4-oxo-3,4-dihydrothieno[3,2-d]pyrimidin-6-yl)benzoic acid]	> 10	
6			C[C@H]1c2cccc(O)c2C(=O)C2=C(O)[C@]3(O)C(=O)C(C(N)=O)=C(O)[C@@H](N(C)C)[C@@H]3[C@@H](O)[C@@H]21 [Doxycycline, reference compound]	20	
0.001		0.003	O=C1C(O)=C([C@H]2CC[C@H](c3ccc(Cl)cc3)CC2)C(=O)c2ccccc21 [Atovaquone, reference compound]	> 15.6	

More lines, now with the values behind:

SMILES	EC50 [1] [µM]	melting point [°C]	EC50 [3] [µM]	CC50 at 72 h [2] [µM]	further results
COc1cc(NC(C)CCCN)c2ncccc2c1 (stereo not shown) [Primaquine, reference compound]			3.6		EC50 ([4]; Plasmodium yoelii, Hepatocyte, read-out: EC50 against liver-stage parasites): 640 ± 100 nM; SI (selectivity index) ([4]; hepatocyte CC50/EC50, P. yoelii (MH)): 110; EC50 ([5]; Plasmodium falciparum, Hepatocyte, P. falciparum in human primary hepatocytes (HH), mean ± SEM of triplicate experiments, read-out: EC50 against liver-stage parasites): 600 ± 60 nM; SI (selectivity index) ([5]; hepatocyte CC50/EC50, P. falciparum (HH)): 66; Size reduction at 10 μM (%) ([5]; parasite (schizont) size, 10 μM, P. falciparum (HH)): 100%; EC50 ([6]; Plasmodium cynomolgi, Hepatocyte, P. cynomolgi in simian primary hepatocytes (SH), mean ± SEM of triplicate experiments, read-out: EC50 against liver-stage parasites): 2720 ± 340 nM; SI (selectivity index) ([6]; hepatocyte CC50/EC50, P. cynomolgi (SH)): 12; Size reduction at 10 μM (%) ([6]; parasite (schizont) size, 10 μM, P. cynomolgi (SH)): 70%; percentage of inhibition of hepatocyte invasion [7]: 100%; blood-stage parasitemia after sporozoite infection [8]: remained clear of parasitemia
CC(C)(C)Nc1nc2cc(-c3ccc(CO)cc3)sc2c(=O)[nH]1 [Metabolite 7, 2-(tert-Butylamino)-6-(4-(hydroxymethyl)phenyl)thieno[3,2-d]pyrimidin-4(3H)-one]	0.4	264	1	25	
CC(C)(C)Nc1nc2cc(-c3ccc(C(=O)O)cc3)sc2c(=O)[nH]1 (as salt: hydrochloride) [Metabolite 10, 4-(2-(tert-Butylamino)-4-oxo-3,4-dihydrothieno[3,2-d]pyrimidin-6-yl)benzoic acid]		> 300			
COc1cccc2c1C(=O)c1c(O)c3c(c(O)c1C2=O)C[C@@](O)(C(=O)CO)C[C@@H]3O[C@H]1C[C@H](N)[C@H](O)[C@H](C)O1 [Doxorubicin, reference compound]				0.2	
